# Where two headings read alike, the source gives them in different places.
# Experiments:
# Assay type in all cases: in vivo
# Avena fatua = test: greenhouse post-emergence herbicidal activity, AVEFA; conditions: read-out: % activity (solo application); for activity at 2 g/ha / activity at 4 g/ha: 168 h, GS 12-16, 7 DAT; for activity at 2 g/ha: 2 gai/ha; for activity at 4 g/ha: 4 gai/ha; for activity at 0.5 g/ha: 0.5 gai/ha
# Procedure: (§1) The following examples serve to illustrate the invention.
# (§2) The culture containers used were plastic pots containing loamy sand with approximately 3.0% of humus as substrate. The seeds of the test plants were sown separately for each species.
# (§3) For the post-emergence treatment, the test plants were grown to a plant height of from 3 to 15 cm, depending on the plant habit, and only then treated with the active compounds which had been suspended or emulsified in water. To this end, the test plants were either sown directly, and grown in the same containers, or they were first grown separately as seedlings and transplanted into the test containers a few days prior to treatment.
# (§4) Depending on the species, the plants were kept at 10-25 °C and 20-35 °C, respectively. The test period extended over 2 to 4 weeks. During this time, the plants were tended and their response to the individual treatments was evaluated.
# (§5) Evaluation was carried out using a scale from 0 to 100. 100 means no emergence of the plants, or complete destruction of at least the above-ground parts, and 0 means no damage or normal course of growth. A good herbicidal activity is given at values of at least 70, and very good herbicidal activity is given at values of at least 85.
# (§6) The respective stated components A and B, and if appropriate, C were formulated as a 5% by weight strength emulsion concentrate and, with addition of the amount of solvent system, introduced into the spray liquor used for applying the active compound. In the examples, the solvent used was water.
# (§7) In the examples below, using the method of S. R. Colby (1967) “Calculating synergistic and antagonistic responses of herbicide combinations”, Weeds 15, p. 22ff., the value E, which is expected if the activity of the individual active compounds is only additive, was calculated.
# (§8) E=X+Y−(X·Y/100) • where • X=percent activity using active compound A at an application rate a; • Y=percent activity using active compound B at an application rate b; • E=expected activity (in %) by A+B at application rates a+b.
# (§9) The plants used in the greenhouse experiments were of the following species
# (§10) In this context, a.i. means active ingredient, based on 100% active ingredient.
# (§11) As indicated the application was post emergent (POST) at the respective growth stage (GS) of the weed.
# (§12) Assessment was at the indicated days after treatment (DAT).
# Abutilon theophrasti = test: greenhouse post-emergence herbicidal activity, ABUTH; conditions: read-out: % activity (solo application); for activity at 2 g/ha: 2 gai/ha
# Procedure: as §1, §2, §3, §4, §5, §6, §7, §8, §9, §10, §11, §12
# Setaria faberi = test: greenhouse post-emergence herbicidal activity, SETFA; conditions: Setaria faberi, post-emergence, read-out: % activity (solo application); for activity at 2 g/ha: 2 gai/ha; for activity at 4 g/ha: 4 gai/ha; for activity at […]: 0.25 gai/ha; for activity at 0.5 g/ha: 0.5 gai/ha
# Procedure: as §1, §2, §3, §4, §5, §6, §7, §8, §9, §10, §11, §12
# Setaria viridis = test: greenhouse post-emergence herbicidal activity, SETVI; conditions: for activity at 1 g/ha: 1 gai/ha; for % activity: solo application, SETVI, GS 11-33, 8 DAT, use rate 0.8 gai/ha
# Procedure: as §1, §2, §3, §4, §5, §6, §7, §8, §9, §10, §11, §12
# Eleusine indica = test: greenhouse post-emergence herbicidal activity, ELEIN; conditions: 480 h, GS 12-16, 20 DAT, 0.25 gai/ha, read-out: % activity (solo application)
# Procedure: as §1, §2, §3, §4, §5, §6, §7, §8, §9, §10, §11, §12
# Kochia scoparia = test: greenhouse post-emergence herbicidal activity, KCHSC; conditions: for % activity: solo application, KCHSC
# Procedure: as §1, §2, §3, §4, §5, §6, §7, §8, §9, §10, §11, §12
# Digitaria sanguinales = test: greenhouse post-emergence herbicidal activity, DIGSA; conditions: for activity at […]: 0.25 gai/ha
# Procedure: as §1, §2, §3, §4, §5, §6, §7, §8, §9, §10, §11, §12
# Amaranthus tamariscinus = test: greenhouse post-emergence herbicidal activity, AMATA; conditions: 0.25 gai/ha, read-out: % activity (solo application)
# Procedure: as §1, §2, §3, §4, §5, §6, §7, §8, §9, §10, §11, §12
# Echinocloa crus-galli = test: greenhouse post-emergence herbicidal activity, ECHCG; conditions: for % activity: solo application, ECHCG, GS 11-33, 20 DAT
# Procedure: as §1, §2, §3, §4, §5, §6, §7, §8, §9, §10, §11, §12
# Commenline benghalensis = test: greenhouse post-emergence herbicidal activity, COMBE; conditions: read-out: % activity (solo application); for activity at 0.5 g/ha: 0.5 gai/ha
# Procedure: as §1, §2, §3, §4, §5, §6, §7, §8, §9, §10, §11, §12
# Sorghum halepense = test: greenhouse post-emergence herbicidal activity, SORHA; conditions: solo application, SORHA, GS 11-33, 20 DAT, use rate 1.6 gai/ha
# Procedure: as §1, §2, §3, §4, §5, §6, §7, §8, §9, §10, §11, §12
# Lolium multiflorum = test: greenhouse post-emergence herbicidal activity, LOLMU; conditions: solo application, LOLMU, GS 11-33, 7 DAT, use rate 1.6 gai/ha
# Procedure: as §1, §2, §3, §4, §5, §6, §7, §8, §9, §10, §11, §12
# Brachiaria decumbens = test: greenhouse post-emergence herbicidal activity, BRADC; conditions: solo application, BRADC, GS 11-33, 20 DAT, use rate 1.6 gai/ha
# Procedure: as §1, §2, §3, §4, §5, §6, §7, §8, §9, §10, §11, §12
# [1] = Digitaria, post-emergence, 480 h, GS 12-16, 20 DAT, read-out: % activity (solo application)
# [2] = 480 h, GS 12-16, 20 DAT, 1 gai/ha
smiles,measurement,setting,value
"C=C[C@]1(C(=O)N[C@@H]2CO[C@H](C(=O)OC)C2)CC(c2cc(F)cc(F)c2)=NO1 [(II.1.cis.A), methyl (2S,4S)-4-[[(5S)-3-(3,5-difluorophenyl)-5-vinyl-4H-isoxazole-5-carbonyl]amino]tetrahydrofuran-2-carboxylate]",activity at 2 g/ha,Avena fatua,20%
same,activity at 4 g/ha,Avena fatua,25%
same,activity at 2 g/ha,"Abutilon theophrasti; 168 h, GS 12-16, 7 DAT",15%
same,activity at 2 g/ha,"Abutilon theophrasti; 504 h, GS 12-16, 21 DAT",0%
same,activity at 2 g/ha,"Setaria faberi; 168 h, GS 12-16, 7 DAT",70%
same,activity at 4 g/ha,"Setaria faberi; 168 h, GS 12-16, 7 DAT",70%
same,activity at 2 g/ha,"Setaria faberi; 504 h, GS 12-16, 21 DAT",75%
same,activity at 4 g/ha,"Setaria faberi; 504 h, GS 12-16, 21 DAT",85%
"C=C[C@]1(C(=O)N[C@H]2CO[C@@H](C(=O)OC)C2)CC(c2cc(F)cc(F)c2)=NO1 [(II.1.cis.B), methyl (2R,4R)-4-[[(5S)-3-(3,5-difluorophenyl)-5-vinyl-4H-isoxazole-5-carbonyl]amino]tetrahydrofuran-2-carboxylate]",activity at 0.5 g/ha,"Setaria viridis; Setaria viridis, post-emergence, 480 h, GS 12-16, 20 DAT, 0.5 gai/ha, read-out: % activity (solo application)",50%
same,activity at […],Eleusine indica,20%
same,activity at 2 g/ha,Avena fatua,10%
same,activity at 4 g/ha,Avena fatua,20%
same,activity at 0.5 g/ha,"Kochia scoparia; Bassia scoparia, post-emergence, 480 h, GS 12-16, 20 DAT, 0.5 gai/ha, read-out: % activity (solo application)",15%
same,activity at 0.5 g/ha,"Abutilon theophrasti; 144 h, GS 12-16, 6 DAT, 0.5 gai/ha",0%
same,activity at […],"Setaria faberi; 144 h, GS 12-16, 6 DAT",35%
same,activity at 0.5 g/ha,"Setaria faberi; 144 h, GS 12-16, 6 DAT",55%
same,activity at […],"Setaria faberi; 480 h, GS 12-16, 20 DAT",20%
same,activity at 0.5 g/ha,"Setaria faberi; 480 h, GS 12-16, 20 DAT",25%
same,activity at […],Digitaria sanguinales; [1],20%
same,activity at 0.5 g/ha,"Digitaria sanguinales; Digitaria, post-emergence, 480 h, GS 12-16, 20 DAT, 0.5 gai/ha, read-out: % activity (solo application)",50%
same,activity at […],"Amaranthus tamariscinus; 144 h, GS 12-16, 6 DAT",15%
"C=C[C@]1(C(=O)N[C@H]2C=C[C@@H](C(=O)OC)C2)CC(c2cc(F)cc(F)c2)=NO1 [(II.5.cis.B), methyl (1S,4R)-4-[[(5S)-3-(3,5-difluorophenyl)-5-vinyl-4H-isoxazole-5-carbonyl]amino]cyclopent-2-ene-1-carboxylate]",activity at 2 g/ha,Avena fatua,40%
same,activity at […],"Echinocloa crus-galli; Echinochloa crus-galli, post-emergence, 144 h, GS 12-16, 6 DAT, 0.25 gai/ha, read-out: % activity (solo application)",15%
same,activity at […],"Commenline benghalensis; 144 h, GS 12-16, 6 DAT, 0.25 gai/ha",40%
same,activity at 0.5 g/ha,"Commenline benghalensis; 144 h, GS 12-16, 6 DAT",55%
same,activity at 0.5 g/ha,"Commenline benghalensis; 480 h, GS 12-16, 20 DAT",70%
same,activity at […],"Setaria faberi; 144 h, GS 12-16, 6 DAT",40%
same,activity at […],"Setaria faberi; 480 h, GS 12-16, 20 DAT",30%
same,activity at […],Digitaria sanguinales; [1],35%
same,activity at […],"Amaranthus tamariscinus; 144 h, GS 12-16, 6 DAT",45%
same,activity at […],"Amaranthus tamariscinus; 480 h, GS 12-16, 20 DAT",40%
"C[C@]1(C(=O)N[C@H]2C=C[C@@H](C(=O)O)C2)CC(c2cc(F)cc(F)c2)=NO1 [(II.8.cis.B), (1S,4R)-4-[[(5R)-3-(3,5-difluorophenyl)-5-methyl-4H-isoxazole-5-carbonyl]amino]cyclopent-2-ene-1-carboxylic acid]",activity at 1 g/ha,"Setaria viridis; Setaria viridis, post-emergence, 144 h, GS 12-16, 6 DAT, read-out: % activity (solo application)",10%
same,activity at 1 g/ha,"Setaria viridis; Setaria viridis, post-emergence, 480 h, GS 12-16, 20 DAT, read-out: % activity (solo application)",20%
same,activity at 0.5 g/ha,"Avena fatua; 144 h, GS 12-16, 6 DAT",20%
same,activity at 2 g/ha,Avena fatua,30%
same,activity at 4 g/ha,Avena fatua,30%
same,activity at 0.5 g/ha,"Avena fatua; 480 h, GS 12-16, 20 DAT",15%
same,activity at 1 g/ha,Avena fatua; [2],65%
same,activity at 1 g/ha,"Kochia scoparia; Bassia scoparia, post-emergence, 480 h, GS 12-16, 20 DAT, 1 gai/ha, read-out: % activity (solo application)",20%
same,activity at 1 g/ha,"Echinocloa crus-galli; Echinochloa crus-galli, post-emergence, 144 h, GS 12-16, 6 DAT, 1 gai/ha, read-out: % activity (solo application)",70%
same,activity at 0.5 g/ha,"Commenline benghalensis; 144 h, GS 12-16, 6 DAT",15%
same,activity at 1 g/ha,"Commenline benghalensis; 144 h, GS 12-16, 6 DAT, 1 gai/ha",40%
same,activity at 0.5 g/ha,"Setaria faberi; 144 h, GS 12-16, 6 DAT",20%
same,activity at 0.5 g/ha,"Setaria faberi; 480 h, GS 12-16, 20 DAT",30%
same,activity at 1 g/ha,Setaria faberi; [2],50%
CCOC(=O)COc1ncccc1Oc1nc(-n2c(=O)cc(C(F)(F)F)n(C)c2=O)c(F)cc1Cl [I.6],% activity,Sorghum halepense,10%
same,% activity,Setaria viridis,30%
same,% activity,Lolium multiflorum,15%
same,% activity,"Kochia scoparia; GS 11-33, 20 DAT, use rate 0.8 gai/ha",55%
same,% activity,Brachiaria decumbens,40%
same,% activity,Echinocloa crus-galli; use rate 1.6 gai/ha,45%
same,% activity,"Digitaria sanguinales; solo application, DIGSA, GS 11-33, 20 DAT, use rate 1.6 gai/ha",50%
CCOC(=O)COc1ncccc1Oc1nc(-n2c(=O)cc(C(F)(F)F)n(C)c2=O)c(F)cc1Br [I.9],% activity,Setaria viridis,75%
same,% activity,"Kochia scoparia; GS 11-33, 7 DAT, use rate 0.4 gai/ha",60%
same,% activity,Echinocloa crus-galli; use rate 0.4 gai/ha,40%

# Source: patent US20260363244A1, “HERBICIDAL COMPOSITIONS COMPRISING URACILS” (BASF SE, priority 2022, published 2026)
